Converted amounts (≈) assume the structure as drawn.
Test system: rat corpus cavernosum tissue
Assay: Relaxation of norepinephrine-precontracted isolated rat corpus cavernosum strips (organ bath)
Format: cell-based, Sprague-Dawley (SD) rats
Protocol: The extracts of this invention may be tested for their activity for alleviating or preventing symptoms erectile dysfunction by techniques known in the art. The test is similar to the endothelium-dependent vasorelaxatin test reported by Fitzpatrick et al., 1995. In general, in accordance with this protocol, plant extracts are tested for endothelium-dependent relaxation (EDR) by measuring the relaxation or contraction imparted by diluted samples to an appropriate tissue sample precontacted by norepinephrine to arrive at an EDR value that is the percentage of relaxation imparted. […] Experiments were performed on male, eight to twelve week old, 278.86±6.85 g Sprague-Dawley (SD) rats. Rats were housed in an animal care facility at the College of Medicine, University of Saskatchewan. Rats were anaesthetized with sodium pentobarbital (50 mg/kg) by intraperitoneal injection. The whole penis of one rat (shown at 10 in FIG. 3A) was gently dissected out and put into a Petri dish containing ice-cold Krebs' solution. The portion of the penis used for the experiments is shown generally at 12 in FIG. 3A. The penis was cleaned and the connective tissues were removed. The section 12 was prepared for testing as a proximal section (10 mm in length) of the corpus cavernosum 18, which was cut longitudinally into two pieces and the size of each piece was about 1×1×10 mm. […] The pH of this bath solution 23 was adjusted to 7.2. The corpus cavemosum strips 19 were tied with silk threads 24 at each end with one end immobilized at 26 on the inner wall of the organ bath chamber 20, and the other hooked to a transducer 28 (FT 03, Grass Ins. Co., Quincy). […] Strips 19 were contracted with 10 μM norepinephrine. After the plateau phase of contraction had been reached, the cumulative concentration-response relationships of BuSY and BuSY608 were tested. […] As a control and comparison compound, sildenafil ([…]®) was also used to test the penile tissue response (tissues prepared as above). […]

EC50 (Rattus norvegicus, strips precontracted with 10 μM norepinephrine, cumulative concentration-response, n=6): 11.4 µg/mL (≈ 24 µM)
Compound: CCCc1nn(C)c2c(=O)[nH]c(-c3cc(S(=O)(=O)N4CCN(C)CC4)ccc3OCC)nc12 [sildenafil]
maximal relaxation (induced by 200 μg/ml, norepinephrine-precontracted strips, n=6): 66.7±6.1%
concentration at which relaxation was initiated (norepinephrine-precontracted strips, cumulative concentration ladder): 0.6 µg/mL
